2 compounds from US20090098589A1 (priority 2006, published 2009) can be followed below.

What all share (assay type): biochemical
Assay [1] concerns the target Bacterial alkaline phosphatase (Escherichia coli, UniProt P00634). The assay can be described thus: Phosphate release from substrate by enzyme, microtitre plate, molybdate detection. The settings on record: 10 mM substrate, pH 7.5, 1 h, 37° C. On the procedure: (§1) Enzymatic assays were carried out in microtitre plates in 100 μl of reaction mixture. The reaction mixture for acid phytases and phosphatases included: 10 mM of substrate in 200 mM sodium acetate buffer, pH 5.5 containing 0.8 mM CaCl2. For alkaline phytases and phosphatases the same conditions were used except sodium acetate buffer was replaced with 200 mM Tris*HCl buffer, pH 7.5. The reactions were allowed to proceed for 1 h at 37° C. after which time the released phosphate was measured by a modification of a known procedure (Heinonen J. K., Lahti R. J. Anal Biochem. 113 (2), 313-317 (1981)). Briefly, 200 pLI of a freshly prepared AMM solution ([…], 15 mM ammonium molybdate and acetone—1:1:2) was added to the 100 μl reaction mixture in each microtitre plate well. The absorbance at 390 nm was measured not earlier than 10 min and not later than 30 min after addition of the AMM reagent. The amount of phosphate was determined by building a calibration curve with phosphate solutions of known concentrations.
(§2) Both phytases and phosphatases catalyse the hydrolysis of phosphoesters. Thus, the difference between these two groups of enzymes is quantitative rather than qualitative and can be defined as the relative efficiency in hydrolysis of phytate and simple monophosphoesters such as e.g. glucose 6-phosphate or fructose 6-phosphate. Phosphatases tend to be relatively inefficient in hydrolysing phytate, and, conversely, most phytases hydrolyse mono-substituted sugar phosphates inefficiently. To test whether polyphosphorylated polyhydroxybenzenes can be used as mimics of phytate we have tested phosphate release from hexaphospho-benzenehexaol and fructose 6-phosphate by several different phytases and phosphatases. Phytases from Aspergillus niger (Natuphos^R), Escherichia coli (Phyzyme XP^R) and Peniophora lycii (Ronozyme^R) as well as potato acid phosphatase were assayed at pH 5.5 while alkaline bacterial phosphatase calf intestinal phosphatase and shrimp phosphatase were assayed at pH 7.5.

A further assay concerns Potato acid phosphatase. The assay is described as above. The settings on record: 10 mM substrate, pH 5.5, 1 h, 37° C. On the procedure: as §1, §2
The next assay deals with Shrimp phosphatase. The description is as above. The settings on record: 10 mM substrate, pH 7.5, 1 h, 37° C. The procedure: as §1, §2
Assay [2] concerns Calf intestine phosphatase. Described as above. Conditions: 10 mM substrate, pH 7.5, 1 h, 37° C. The procedure:
as §1, §2

The target of assay [3] is T1, A. niger phytase (Natuphos^R) (Aspergillus niger, UniProt P34752).
T1 construct: purchased
Described as above. The settings on record: 10 mM substrate, pH 5.5, 1 h, 37° C. On the procedure:
as §1, §2

For assay [4], the target named is T2, E. coil phytase (Phyzyme XP^R) (Escherichia coli, UniProt P07102).
T2 construct: purchased
Described as above. Conditions: 10 mM substrate, pH 5.5, 1 h, 37° C. The procedure:
as §1, §2

In assay [5] the test system is Peniophora lycii phytase (Ronozyme^R). Described as above. Conditions: 10 mM substrate, pH 5.5, 1 h, 37° C. The procedure: as §1, §2
The subject of the next assay is typical phosphatases. Briefly: Phosphate release from substrate, summary for typical phosphatases. Conditions: all tested typical phosphatases, compared with fructose 6-phosphate. On the procedure: as §1
(§3) Both phytases and phosphatases catalyse the hydrolysis of phosphoesters. Thus, the difference between these two groups of enzymes is quantitative rather than qualitative and can be defined as the relative efficiency in hydrolysis of phytate and simple monophosphoesters such as e.g. glucose 6-phosphate or fructose 6-phosphate. […]

A further assay relates to all tested phytases. The assay can be described thus: Phosphate release from substrate, summary for all tested phytases. The settings on record: compared with fructose 6-phosphate. The procedure:
as §1, §3

Molecules are shown by their SMILES.

T1 sequence (P34752 24-467): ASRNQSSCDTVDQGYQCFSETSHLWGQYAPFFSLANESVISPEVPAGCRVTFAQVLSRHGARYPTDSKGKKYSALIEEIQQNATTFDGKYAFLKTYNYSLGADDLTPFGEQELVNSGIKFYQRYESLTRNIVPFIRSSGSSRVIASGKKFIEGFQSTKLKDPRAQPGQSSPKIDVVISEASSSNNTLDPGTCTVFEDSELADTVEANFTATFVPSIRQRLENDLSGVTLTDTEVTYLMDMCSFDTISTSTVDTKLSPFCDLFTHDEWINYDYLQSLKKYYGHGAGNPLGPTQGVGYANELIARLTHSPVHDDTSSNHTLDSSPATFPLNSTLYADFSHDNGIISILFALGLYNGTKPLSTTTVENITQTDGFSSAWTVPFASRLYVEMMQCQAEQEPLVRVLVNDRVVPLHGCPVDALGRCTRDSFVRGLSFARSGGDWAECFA
T2 sequence (P07102 23-432): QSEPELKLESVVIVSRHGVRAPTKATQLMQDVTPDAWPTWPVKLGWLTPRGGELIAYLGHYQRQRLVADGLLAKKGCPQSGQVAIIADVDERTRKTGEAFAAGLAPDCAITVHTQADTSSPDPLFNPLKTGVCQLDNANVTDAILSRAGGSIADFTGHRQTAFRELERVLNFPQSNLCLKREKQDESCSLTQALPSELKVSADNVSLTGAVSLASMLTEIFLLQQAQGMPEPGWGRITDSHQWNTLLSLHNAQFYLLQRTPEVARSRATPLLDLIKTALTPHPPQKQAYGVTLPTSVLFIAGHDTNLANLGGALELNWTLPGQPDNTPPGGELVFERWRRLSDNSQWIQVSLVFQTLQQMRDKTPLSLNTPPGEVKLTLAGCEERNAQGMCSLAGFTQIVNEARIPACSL
Chain of Bacterial alkaline phosphatase (P00634 22-471): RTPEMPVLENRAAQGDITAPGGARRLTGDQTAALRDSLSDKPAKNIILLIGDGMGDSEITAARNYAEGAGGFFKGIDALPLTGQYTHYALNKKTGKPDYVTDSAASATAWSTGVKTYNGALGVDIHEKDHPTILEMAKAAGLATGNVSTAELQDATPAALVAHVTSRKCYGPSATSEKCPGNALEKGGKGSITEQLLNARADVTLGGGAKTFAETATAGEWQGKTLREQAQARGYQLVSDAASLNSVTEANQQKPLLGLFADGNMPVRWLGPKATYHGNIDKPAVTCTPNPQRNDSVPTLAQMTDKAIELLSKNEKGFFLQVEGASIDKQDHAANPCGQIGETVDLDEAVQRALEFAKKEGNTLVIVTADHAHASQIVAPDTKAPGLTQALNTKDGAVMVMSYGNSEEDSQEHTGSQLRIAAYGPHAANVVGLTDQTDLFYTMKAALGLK

For `O=P(O)(O)Oc1cc(OP(=O)(O)O)cc(OP(=O)(O)O)c1`, the “Ratio of phosphate-releasing activities with the substrate and fructose 6-P” value (“Ratio … with the substrate and fructose 6-P” for short) in assay [1] is reported as 1.0; with Potato acid phosphatase it was 3.9; in the assay on Shrimp phosphatase, 3.8; in [2], 1.0; in assay [3] it was 280; in assay [4] it was 500. For the same compound, in assay [5], the “Ratio … with the substrate and fructose 6-P” value is 250. Further, in the assay on typical phosphatases, the “Quality as substrate for typical phosphatases (in words)” value is recorded as “good substrate”. Further, the “Quality as substrate for all tested phytases (in words)” value in the assay on all tested phytases is “good substrate”.

`O=P(O)(O)Oc1c(OP(=O)(O)O)c(OP(=O)(O)O)c(OP(=O)(O)O)c(OP(=O)(O)O)c1OP(=O)(O)O` [benzenehexaol hexaphosphate, Benzenehexaol hexaphosphate]: the “Ratio … with the substrate and fructose 6-P” value in [1] was determined as 0.01; in the assay on Potato acid phosphatase, 0.23; in the assay on Shrimp phosphatase, 0.1; in assay [2], 0.01; in assay [3], 250; in assay [4], 122. Also, the “Ratio … with the substrate and fructose 6-P” value in assay [5] came to 2.7. The “Quality as substrate for typical phosphatases (in words)” value in the assay on typical phosphatases is given as “the opposite is true”. Further, the “Quality as substrate for all tested phytases (in words)” value with all tested phytases is reported as “much better substrate than fructose 6-phosphate”.
